Data on one substance can be found in article PMC9963887, “Towards Radiolabeled EGFR-Specific Peptides: Alternatives to GE11” (Pharmaceuticals, 2023).

In the test the test system is EGFR-positive A431 cells. The test is described as follows: cell uptake / internalization studies on A431 cells. The test is classed as cell-based, human. The settings on record: 1 h incubation. Here is the method: The cellular uptake was differentiated by membrane-bound and internalized activity. In these experiments, no EGFR-specific interaction of any of the radiolabeled agents [^68Ga]Ga-1–[^68Ga]Ga-11 was observed (Figure 5).
Internalization studies of [^68Ga]Ga-1–[^68Ga]Ga-11 on A431 cells. For this purpose, the A431 cells (10^6 per well) were seeded into 24-well cell culture multiwell plates (cellstar) and incubated for 2 days at 37 °C in a humidified CO2 (5%) atmosphere. Directly before the experiment, each well was washed twice with fresh internalization medium (PBS/DMEM, high glucose, 1/99, v/v), followed by the addition of internalization medium to a final volume of 1.35 mL per well. […] Afterwards, the medium was separated from the cells and each well was washed twice with 1 mL of ice-cold internalization medium, the washing solutions were added to the collected internalization medium and measured in a γ-counter (these combined solutions contain the unbound fraction). To determine the surface-bound fraction, each well was further incubated twice for 5 min with ice-cold glycine-buffer (pH 2.8, 0.05 M, 1 mL) and the supernatants were collected and measured. The internalized fraction was determined by lysing the cells twice for 5 min with sodium hydroxide solution (2 M, 1 mL), collection and measurement of the combined solutions. […]

In the case of “[^125I]I-hEGF: ^125I-labeled hEGF from PerkinElmer, reference compound in cell uptake and competitor in displacement assays”, the “activity, internalized + bound to membrane, blocked (overall cellular uptake under blocking)” value (blocking with 100-fold excess hEGF) is given as 1.9%. Besides, the “activity, internalized + bound to membrane, unblocked (overall cellular uptake)” value (non-blocking conditions) is recorded as 33.6%.
